Laboratory results reported in publication PMC6257796, “Effects of Eupatilin and Jaceosidin on Cytochrome P450 Enzyme Activities in Human Liver Microsomes” (Molecules, 2010).

Experiments:
Assay type in all cases: in vitro ADME
[1] = target: T1, CYP2C19 (Homo sapiens, UniProt P33261); experiment: Kinetic analysis (Ki, inhibition type) in human liver microsomes: [S]-mephenytoin 4'-hydroxylation; details: pooled human liver microsomes; for Inhibition type, S-mephenytoin 4'-hydroxylation (CYP2C19): Lineweaver, Dixon and secondary reciprocal plots
T1 construct: pooled human liver microsomes (0.25 mg/mL); tissue BD Gentest Co. H161; host or cells: pooled human liver microsomes
Experimental: (§1) The Ki values and inhibition types (competitive, noncompetitive, uncompetitive, or mixed) were determined for eupatilin and jaceosidin using Lineweaver plots, Dixon plots, and secondary reciprocal plots.
(§2) The reactions were initiated by addition of NADPH at 37 °C and stopped after 15 min by placing the incubation tubes on ice and adding 100 μL of ice-cold methanol containing an internal standard. The incubation mixtures were centrifuged at 10,000' g for 5 min, and aliquots (5 μL) of the supernatants were analyzed by liquid chromatography/tandem mass spectrometry (LC/MS/MS).
(§3) All seven metabolites produced from the cocktail of CYP isoform-specific substrates were simultaneously determined by LC/MS/MS. The system consisted of a tandem quadrupole mass spectrometer (TSQ Quantum Access, ThermoFisher Scientific, CA, USA) coupled with a Nanospace SI-2 LC system. The separation was performed on an Atlantis dC18 column (5 μm, 2.1 mm i.d. × 100 mm, Waters, Waltham, MA, USA) using the gradient elution of a mixture of 5% methanol in 0.1% formic acid (mobile phase A) and 95% methanol in 0.1% formic acid (mobile phase B) at a flow rate of 0.25 mL/min: 10% mobile phase B for 1 min, 10% to 95% mobile phase B for 1 min, 95% mobile phase B for 5 min. The column and autosampler temperatures were 50 °C and 4 °C, respectively. After 1.5 min, the LC eluant was diverted from waste to the mass spectrometer that was fitted with an electrospray ionization (ESI) source and operated in the positive ion mode. The ESI source settings for the ionization of the metabolites were as follows: electrospray voltage, 5.0 kV; vaporizer temperature, 420 °C; capillary temperature 360 °C; sheath gas pressure, 35 psi; auxiliary gas pressure, 10 psi. Quantification was performed by selected reaction monitoring (SRM) of the [M+H]^+ ion and the related product ion for each metabolite. The analytical data were processed using Xcalibur® software (ThermoFisher Scientific).
(§4) The IC50 values (concentration of inhibitor causing 50% inhibition of the original enzyme activity) were calculated using WinNonlin software, a non-linear regression analysis program (Pharsight, Mountain View, CA, USA). The apparent kinetic parameters for inhibitory potential (Ki values) were estimated from the fitted curves using Enzyme Kinetics Ver. 1.3 program (Systat Software Inc., San Jose, CA, USA).

[2] = target: T2, CYP2C8 (Homo sapiens, UniProt P10632); experiment: Kinetic analysis (Ki, inhibition type) in human liver microsomes: amodiaquine N-deethylation; details: pooled human liver microsomes
T2 construct: pooled human liver microsomes (0.25 mg/mL); tissue BD Gentest Co. H161; host or cells: pooled human liver microsomes
T2 sequence (P10632 1-490): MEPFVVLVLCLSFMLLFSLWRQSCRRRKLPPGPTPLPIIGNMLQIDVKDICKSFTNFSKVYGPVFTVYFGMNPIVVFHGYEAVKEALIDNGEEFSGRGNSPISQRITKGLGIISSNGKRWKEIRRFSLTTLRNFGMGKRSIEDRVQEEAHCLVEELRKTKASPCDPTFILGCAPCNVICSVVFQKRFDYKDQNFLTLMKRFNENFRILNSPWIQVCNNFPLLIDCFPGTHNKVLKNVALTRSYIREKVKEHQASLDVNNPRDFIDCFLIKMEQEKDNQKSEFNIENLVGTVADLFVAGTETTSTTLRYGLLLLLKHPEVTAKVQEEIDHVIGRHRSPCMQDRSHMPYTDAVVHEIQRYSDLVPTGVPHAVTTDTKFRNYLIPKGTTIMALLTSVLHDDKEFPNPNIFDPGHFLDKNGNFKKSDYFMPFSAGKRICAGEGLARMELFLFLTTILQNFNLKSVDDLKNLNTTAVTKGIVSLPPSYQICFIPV
Experimental: as §1, §2, §3, §4

[3] = target: T3, CYP2C9 (Homo sapiens, UniProt P11712); experiment: Kinetic analysis (Ki, inhibition type) in human liver microsomes: diclofenac 4-hydroxylation; details: pooled human liver microsomes
T3 construct: pooled human liver microsomes (0.25 mg/mL); tissue BD Gentest Co. H161; host or cells: pooled human liver microsomes
Experimental: as §1, §2, §3, §4

[4] = target: T3, CYP2C9; experiment: Cocktail probe assay in pooled human liver microsomes: diclofenac 4-hydroxylation (IC50); details: 10 μM diclofenac
Experimental: (§5) The inhibitory potencies (IC50 values) of eupatilin and jaceosidin were determined with CYP assays in the presence and absence of eupatilin and jaceosidin (final concentrations of 0.1−100 μM with acetonitrile concentration of less than 0.5% v/v) using pooled human liver microsomes. Phenacetin O-deethylase, coumarin 7-hydroxylase, amodiaquine N-deethylase, diclofenac hydroxylase, [S]-mephenytoin 4'-hydroxylase, bufuralol 1'-hydroxylase, and midazolam 1'-hydroxylase activities were determined as probe activities for CYP1A2, CYP2A6, CYP2C8, CYP2C9, CYP2C19, CYP2D6, and CYP3A, respectively, using cocktail incubation and tandem mass spectrometry. The incubation mixtures were prepared in a total volume of 200 μL as follows: pooled human liver microsomes (0.25 mg/mL), 1.3 mM NADPH, 3.3 mM MgCl2, 50 mM potassium phosphate buffer (pH 7.4), and a cocktail of probe substrates and various concentrations of eupatilin or jaceosidin (0.1−100 μM). […] After a 3 min preincubation at 37 °C, the reactions were initiated by adding NADPH and incubated for 20 min at 37 °C with shaking in a water bath. After incubation, the reaction was stopped by placing the tubes on ice and adding 100 μL of ice-cold acetonitrile containing internal standards (0.5 μg/mL [^13C,^15N]-acetaminophen for acetaminophen and N-desethylamodiaquine, 0.5 μg/mL [^2H5]-7-hydroxycoumarin for 7-hydroxycoumarin, 2.0 μg/mL [^13C6]-4-hydoxydiclofenac for 4-hydoxydiclofenac, 0.5 μg/mL [^2H3]-4'-hydoxymephenytoin for 4-hydoxymephenytoin and 1'-hydroxymidazolam, and 0.5 μg/mL [^2H7]-1'-hydroxybufuralol for 1'-hydroxybufuralol). The incubation mixtures were then centrifuged at 10,000× g for 5 min. All incubations were performedin triplicate.
(§6) To evaluate the effect of preincubation on inhibitory potency, eupatilin and jaceosidin (0.1−100 μM) were preincubated for 30 min with NADPH, buffer, and microsomes before the addition of the CYP probe substrates. The reaction was started by addition of the cocktail of probe substrates.
(§7) All seven metabolites produced from the cocktail of CYP isoform-specific substrates were simultaneously determined by LC/MS/MS. The system consisted of a tandem quadrupole mass spectrometer (TSQ Quantum Access, ThermoFisher Scientific, CA, USA) coupled with a Nanospace SI-2 LC system. The separation was performed on an Atlantis dC18 column (5 μm, 2.1 mm i.d. × 100 mm, Waters, Waltham, MA, USA) using the gradient elution of a mixture of 5% methanol in 0.1% formic acid (mobile phase A) and 95% methanol in 0.1% formic acid (mobile phase B) at a flow rate of 0.25 mL/min: 10% mobile phase B for 1 min, 10% to 95% mobile phase B for 1 min, 95% mobile phase B for 5 min. […] Quantification was performed by selected reaction monitoring (SRM) of the [M+H]^+ ion and the related product ion for each metabolite. […]

[5] = target: T4, CYP1A2 (Homo sapiens, UniProt P05177); experiment: Cocktail probe assay in pooled human liver microsomes: phenacetin O-deethylation (IC50); details: 50 μM phenacetin
T4 construct: pooled human liver microsomes (0.25 mg/mL); tissue BD Gentest Co. H161; host or cells: pooled human liver microsomes
T4 sequence (P05177 1-516): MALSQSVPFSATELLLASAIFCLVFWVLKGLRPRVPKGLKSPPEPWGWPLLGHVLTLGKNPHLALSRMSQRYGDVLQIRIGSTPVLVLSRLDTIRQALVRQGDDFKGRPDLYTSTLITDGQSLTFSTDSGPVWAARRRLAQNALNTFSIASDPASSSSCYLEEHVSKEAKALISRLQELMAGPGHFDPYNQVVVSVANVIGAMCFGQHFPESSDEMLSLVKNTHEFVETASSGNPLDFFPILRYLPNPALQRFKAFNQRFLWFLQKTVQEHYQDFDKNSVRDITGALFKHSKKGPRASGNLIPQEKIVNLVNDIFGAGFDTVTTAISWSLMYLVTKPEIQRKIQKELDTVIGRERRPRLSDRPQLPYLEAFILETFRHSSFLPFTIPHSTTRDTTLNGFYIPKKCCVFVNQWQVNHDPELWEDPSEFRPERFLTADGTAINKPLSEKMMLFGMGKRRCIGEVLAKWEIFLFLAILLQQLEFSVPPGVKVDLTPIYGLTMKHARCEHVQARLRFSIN
Experimental: as §5, §6, §7

[6] = target: T5, CYP2A6 (Homo sapiens, UniProt P11509); experiment: Cocktail probe assay in pooled human liver microsomes: coumarin 7-hydroxylation (IC50); details: for IC50, coumarin 7-hydroxylation (CYP2A6): pooled human liver microsomes, 2.5 μM coumarin
T5 construct: pooled human liver microsomes (0.25 mg/mL); tissue BD Gentest Co. H161; host or cells: pooled human liver microsomes
T5 sequence (P11509 1-494): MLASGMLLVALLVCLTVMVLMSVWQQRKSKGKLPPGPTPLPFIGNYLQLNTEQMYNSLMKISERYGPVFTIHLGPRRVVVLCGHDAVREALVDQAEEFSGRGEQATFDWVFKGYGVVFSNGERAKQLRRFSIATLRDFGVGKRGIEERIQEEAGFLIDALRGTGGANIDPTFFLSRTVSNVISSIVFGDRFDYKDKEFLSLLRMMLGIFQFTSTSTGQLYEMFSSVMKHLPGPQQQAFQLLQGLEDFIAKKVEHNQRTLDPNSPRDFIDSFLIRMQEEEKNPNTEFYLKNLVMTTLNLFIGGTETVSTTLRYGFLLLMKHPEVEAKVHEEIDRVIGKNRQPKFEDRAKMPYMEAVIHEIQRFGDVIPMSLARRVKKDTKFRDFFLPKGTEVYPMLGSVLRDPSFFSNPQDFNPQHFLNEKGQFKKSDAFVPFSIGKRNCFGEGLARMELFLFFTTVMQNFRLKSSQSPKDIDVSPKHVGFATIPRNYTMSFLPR
Experimental: as §5, §6, §3, §4

[7] = target: T4, CYP1A2; experiment: Kinetic analysis (Ki, inhibition type) in human liver microsomes: phenacetin O-deethylation; details: pooled human liver microsomes
Experimental: as §1, §2, §3, §4

[8] = target: T2, CYP2C8; experiment: Cocktail probe assay in pooled human liver microsomes: amodiaquine N-deethylation (IC50); details: 2.0 μM amodiaquine, no preincubation
Experimental: as §5, with “After incubation, the reaction was stopped by placing the tubes on ice and adding 100 μL of ice-cold acetonitrile containing internal standards (0.5 μg/mL [^13C,^15N]-acetaminophen for acetaminophen and N-desethylamodiaquine, 0.5 μg/mL [^2H5]-7-hydroxycoumarin for 7-hydroxycoumarin, 2.0 μg/mL [^13C6]-4-hydoxydiclofenac for 4-hydoxydiclofenac, 0.5 μg/mL [^2H3]-4'-hydoxymephenytoin for 4-hydoxymephenytoin and 1'-hydroxymidazolam, and 0.5 μg/mL [^2H7]-1'-hydroxybufuralol for 1'-hydroxybufuralol). The incubation mixtures were then centrifuged at 10,000× g for 5 min. All incubations were performedin triplicate.” left out
All seven metabolites produced from the cocktail of CYP isoform-specific substrates were simultaneously determined by LC/MS/MS. […] Quantification was performed by selected reaction monitoring (SRM) of the [M+H]^+ ion and the related product ion for each metabolite. […]

[9] = target: T1, CYP2C19; experiment: Cocktail probe assay in pooled human liver microsomes: [S]-mephenytoin 4'-hydroxylation (IC50); details: 50 μM [S]-mephenytoin
Experimental: as §5, §6, §7

[10] = target: T6, CYP2D6 (Homo sapiens, UniProt P10635); experiment: Kinetic analysis (Ki, inhibition type) in human liver microsomes: bufuralol 1'-hydroxylation; details: pooled human liver microsomes
T6 construct: pooled human liver microsomes (0.25 mg/mL); tissue BD Gentest Co. H161; host or cells: pooled human liver microsomes
Experimental: as §1, §2, §3, §4

[11] = system: CYP3A; experiment: Cocktail probe assay in pooled human liver microsomes: midazolam 1'-hydroxylation (IC50); details: for IC50, midazolam 1'-hydroxylation (CYP3A): pooled human liver microsomes, 2.5 μM midazolam
Experimental: as §5, §6, §3, §4

[12] = target: T6, CYP2D6; experiment: Cocktail probe assay in pooled human liver microsomes: bufuralol 1'-hydroxylation (IC50); details: 5.0 μM bufuralol
Experimental: as §5, §6, §7

[13] = Lineweaver, Dixon and secondary reciprocal plots
[14] = with 30 min preincubation in presence of NADPH

T6 sequence (P10635 whole entry): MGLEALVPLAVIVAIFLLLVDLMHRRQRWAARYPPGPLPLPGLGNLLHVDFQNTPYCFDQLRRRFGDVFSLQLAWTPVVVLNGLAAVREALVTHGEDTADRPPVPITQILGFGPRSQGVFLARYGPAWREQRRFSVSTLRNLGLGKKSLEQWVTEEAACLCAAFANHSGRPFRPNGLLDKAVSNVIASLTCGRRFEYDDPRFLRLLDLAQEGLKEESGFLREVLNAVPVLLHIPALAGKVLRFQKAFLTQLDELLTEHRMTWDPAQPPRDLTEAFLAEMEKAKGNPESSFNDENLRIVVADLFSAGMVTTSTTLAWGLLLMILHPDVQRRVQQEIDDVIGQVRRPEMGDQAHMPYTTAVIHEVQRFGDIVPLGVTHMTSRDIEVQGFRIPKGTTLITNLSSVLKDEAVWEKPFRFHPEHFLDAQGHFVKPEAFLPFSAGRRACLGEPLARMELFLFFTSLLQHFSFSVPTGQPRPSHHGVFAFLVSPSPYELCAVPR
T1 sequence (P33261 whole entry): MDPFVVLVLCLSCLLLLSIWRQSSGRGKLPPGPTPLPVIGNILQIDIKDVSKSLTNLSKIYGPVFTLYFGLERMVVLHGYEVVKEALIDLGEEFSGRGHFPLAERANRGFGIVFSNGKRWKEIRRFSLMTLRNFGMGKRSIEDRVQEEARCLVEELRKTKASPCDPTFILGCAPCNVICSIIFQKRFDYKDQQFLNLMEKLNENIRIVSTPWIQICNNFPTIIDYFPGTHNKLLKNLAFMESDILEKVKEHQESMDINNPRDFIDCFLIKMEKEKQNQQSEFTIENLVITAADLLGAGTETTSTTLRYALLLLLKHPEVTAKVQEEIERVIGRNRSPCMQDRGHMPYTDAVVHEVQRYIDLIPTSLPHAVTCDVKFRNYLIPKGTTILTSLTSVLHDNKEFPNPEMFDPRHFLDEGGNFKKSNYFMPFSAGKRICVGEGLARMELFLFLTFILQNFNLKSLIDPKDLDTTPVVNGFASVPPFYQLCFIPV
T3 sequence (P11712 whole entry): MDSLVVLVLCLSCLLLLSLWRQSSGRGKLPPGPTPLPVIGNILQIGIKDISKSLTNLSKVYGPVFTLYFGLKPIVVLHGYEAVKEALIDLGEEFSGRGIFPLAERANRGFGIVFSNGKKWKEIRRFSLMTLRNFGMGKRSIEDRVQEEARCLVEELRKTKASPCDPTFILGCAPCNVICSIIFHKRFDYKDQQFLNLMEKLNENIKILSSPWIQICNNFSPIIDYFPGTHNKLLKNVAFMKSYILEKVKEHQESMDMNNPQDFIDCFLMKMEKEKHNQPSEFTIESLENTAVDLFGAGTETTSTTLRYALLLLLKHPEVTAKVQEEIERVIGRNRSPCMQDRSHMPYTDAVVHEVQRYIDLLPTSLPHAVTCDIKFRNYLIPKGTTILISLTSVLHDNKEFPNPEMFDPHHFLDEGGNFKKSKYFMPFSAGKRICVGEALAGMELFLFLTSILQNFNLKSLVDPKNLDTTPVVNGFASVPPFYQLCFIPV

COc1ccc(-c2cc(=O)c3c(O)c(OC)c(O)cc3o2)cc1OC [eupatilin, 2-(3,4-dimethoxyphenyl)-5,7-dihydroxy-6-methoxychromen-4-one]
Ki ([1]; 10-100 μM [S]-mephenytoin): 28.7 ± 3.6 µM | Inhibition type, S-mephenytoin 4'-hydroxylation (CYP2C19) [1]: mixed | Inhibition type, S-mephenytoin 4'-hydroxylation (CYP2C19) ([1]; listed as Eupatilin): mixed-type | Ki ([2]; 0.5-5 μM amodiaquine): 102 ± 8.9 µM | Inhibition type, amodiaquine N-deethylation (CYP2C8) [2, 13]: competitive | Ki ([3]; 1-50 μM diclofenac): 1.6 ± 0.17 µM | Inhibition type, diclofenac 4-hydroxylation (CYP2C9) [3, 13]: mixed | IC50 ([4]; no preincubation): 4.1 ± 0.49 µM | IC50 [4, 14]: 4.9 ± 0.91 µM | IC50 ([5]; no preincubation): 9.4 ± 1.5 µM | IC50 [5, 14]: 11.8 ± 1.3 µM | Inhibition of CYP2A6-catalyzed coumarin 7-hydroxylation at the highest concentration tested ([6]; 100 μM, human liver microsomes): negligible inhibition | IC50, coumarin 7-hydroxylation (CYP2A6) ([6]; no preincubation): No inhibition | IC50, coumarin 7-hydroxylation (CYP2A6) [6, 14]: No inhibition | Ki ([7]; 10-100 μM phenacetin): 2.3 ± 0.18 µM | Inhibition type, phenacetin O-deethylation (CYP1A2) [7, 13]: competitive | IC50 [8]: > 100 µM | IC50 ([9]; no preincubation): 48.1 ± 12 µM | IC50 [9, 14]: 57.7 ± 16.3 µM | Ki ([10]; 0.5-5 μM bufuralol): 94.6 ± 5.8 µM | Inhibition type, bufuralol 1'-hydroxylation (CYP2D6) [10, 13]: competitive | Inhibition of CYP3A4-catalyzed midazolam 1'-hydroxylation at the highest concentration tested ([11]; 100 μM, human liver microsomes): negligible inhibition | IC50, midazolam 1'-hydroxylation (CYP3A) ([11]; no preincubation): No inhibition | IC50, midazolam 1'-hydroxylation (CYP3A) [11, 14]: No inhibition | IC50 ([12]; no preincubation): 58.7 ± 7.6 µM | IC50 [12, 14]: 79.1 ± 7.5 µM
